{"source": "patent US11124476B2", "about": "“Tunable nitric oxide-releasing macromolecules having multiple nitric oxide donor structures” (The University of North Carolina at Chapel Hill, priority 2011, dated 2021)", "assay": "NO release from NO-releasing co-condensed silica, Nitric Oxide Analyzer, physiological condition", "type": "physicochemical", "procedure": "A variety of single and multi-donor co-condensed silica macromolecules were synthesized. […] FIGS. 8A and 8B illustrate the same release profiles with normalized maximum NO concentration. FIG. 8B illustrates the same release profiles, with normalized maximum NO concentration, as FIG. 8A, but is an expanded view of the release profiles. All release profiles were collected with a Nitric Oxide Analyzer under physiological condition at pH=7.4 and 37° C.\nTo make NO-releasing co-condensed silica with programmed release profile, the different silane diazeniumdiolate monomer solutions were mixed at the pre-set ratios. The mixture is then added into a flask with pre-cooled ethanol with nitrogen protection. The mixture is further cooled to −15° C. and pre-set amount of backbone silane (TEOS or TMOS) is added. When the mixture temperature equilibriums to −15° C., the ammonium hydroxide aqueous solution is added. The reaction is then warmed rapidly to 15° and stirred for additional 3 hours. The content is then filtered. The solid is washed with dry ethanol twice and then dried extensively.", "data": [{"smiles": "CCCCCCCCCCCCNCCCCCCN(CCCCCCCCCCCC)/[N+]([O-])=N/O", "note": "[MAP3 diazeniumdiolate]", "values": [{"measurement": "duration of NO release", "value": "only a few minutes"}]}]}
